Assay results: patent US9656955B2, “Pyrrolidine derivatives, pharmaceutical compositions containing them, and their use in therapy” (AbbVie Deutschland GmbH & Co. KG, priority 2013, dated 2017)

The molecules below were run against human GlyT1c transporter (Homo sapiens (Human), UniProt P48067) (assay: Radioligand binding assays using recombinant CHO cell membranes expressing human GlyT1). Conditions: not given.
Chain of human GlyT1c transporter (P48067 whole entry): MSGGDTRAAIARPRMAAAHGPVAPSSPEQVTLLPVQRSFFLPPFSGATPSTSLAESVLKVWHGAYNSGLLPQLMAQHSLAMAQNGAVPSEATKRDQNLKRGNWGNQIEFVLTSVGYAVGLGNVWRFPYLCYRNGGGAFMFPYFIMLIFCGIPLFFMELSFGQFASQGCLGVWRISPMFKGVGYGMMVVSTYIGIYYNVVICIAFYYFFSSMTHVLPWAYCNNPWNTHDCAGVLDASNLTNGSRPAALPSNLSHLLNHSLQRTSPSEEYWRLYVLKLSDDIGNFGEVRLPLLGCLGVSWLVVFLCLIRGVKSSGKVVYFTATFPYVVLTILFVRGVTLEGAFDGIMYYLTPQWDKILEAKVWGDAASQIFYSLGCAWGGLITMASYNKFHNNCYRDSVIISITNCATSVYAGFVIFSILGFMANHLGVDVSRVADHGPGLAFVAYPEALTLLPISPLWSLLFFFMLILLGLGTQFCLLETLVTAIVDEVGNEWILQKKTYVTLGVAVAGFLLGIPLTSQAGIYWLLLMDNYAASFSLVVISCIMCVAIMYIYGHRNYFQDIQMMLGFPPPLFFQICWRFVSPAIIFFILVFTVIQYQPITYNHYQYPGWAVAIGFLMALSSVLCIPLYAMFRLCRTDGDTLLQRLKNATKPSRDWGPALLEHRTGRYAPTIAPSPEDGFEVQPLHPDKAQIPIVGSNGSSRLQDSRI

Row | Compound | Ki
1 | Cn1cnc(S(=O)(=O)N2C[C@@H](C(=O)c3cc(Cl)cc(Cl)c3)[C@H](c3ccc(F)cc3)C2)c1 (relative stereo) [Example 360, (3,5-Dichlorophenyl) {trans-4-(4-fluorophenyl)-1-[(1-methyl-1H-imidazol-4-yl)sulfonyl]pyrrolidin-3-yl}methanone] | ≤ 0.1 µM
2 | Cn1cnc(S(=O)(=O)N2C[C@@H](Nc3cccc(F)n3)[C@H](c3ccc(F)cc3)C2)c1 (relative stereo) [Example 238, 6-fluoro-N-{trans-4-(4-fluorophenyl)-1-[(1-methyl-1H-imidazol-4-yl)sulfonyl]pyrrolidin-3-yl}pyridin-2-amine] | ≤ 10 µM
3 | Cn1cnc(S(=O)(=O)N2C[C@@H](Nc3cc(C(F)(F)F)ncn3)[C@H](C3CCCO3)C2)c1 (relative stereo) [Example 853, N-[Trans-1-[(1-methyl-1H-imidazol-4-yl)sulfonyl]-4-(tetrahydrofuran-2-yl)pyrrolidin-3-yl]-6-(trifluoromethyl)pyrimidin-4-amine] | ≤ 1 µM

Same assay, conditions: radioligand binding, human GlyT1c transporter-expressing CHO cell membranes

Row | Compound | Ki
4 | COC(=O)c1sccc1S(=O)(=O)N1CC(Nc2ccc(F)c(F)c2)C(c2ccccc2)C1 (centres unmarked) [Example 489, methyl 3-({3-[(3,4-difluorophenyl)amino]-4-phenylpyrrolidin-1-yl}sulfonyl)thiophene-2-carboxylate] | ≤ 10 µM
5 | Cn1cnc(S(=O)(=O)N2C[C@H](Nc3ccc(F)c(Cl)c3)[C@@H](c3ccccc3)C2)c1 [Example 417, (3R,4S)—N-(3-chloro-4-fluorophenyl)-1-[(1-methyl-1H-imidazol-4-yl)sulfonyl]-4-phenylpyrrolidin-3-amine] | ≤ 0.01 µM
6 | Cn1cnc(S(=O)(=O)N2C[C@H](Nc3cccc(C4CCNCC4)c3)[C@@H](c3ccccc3)C2)c1 [Example 777, (3R,4S)-1-[(1-methyl-1H-imidazol-4-yl)sulfonyl]-4-phenyl-N-[3-(piperidin-4-yl)phenyl]pyrrolidin-3-amine] | ≥ 10 µM
7 | Cn1cnc(S(=O)(=O)N2C[C@H](NC(=O)c3cnc(C(F)(F)F)cn3)[C@@H](c3ccccc3)C2)c1 [Example 414, N-{(3R,4S)-1-[(1-methyl-1H-imidazol-4-yl)sulfonyl]-4-phenylpyrrolidin-3-yl}-5-(trifluoromethyl)pyrazine-2-carboxamide] | ≤ 10 µM
8 | Cc1ccc(CN[C@H]2CN(S(=O)(=O)c3cn(C)cn3)C[C@@H]2c2ccccc2)s1 [Example 462, (3R,4S)-1-[(1-methyl-1H-imidazol-4-yl)sulfonyl]-N-[(5-methylthiophen-2-yl)methyl]-4-phenylpyrrolidin-3-amine] | ≤ 0.1 µM
9 | Cn1cnc(S(=O)(=O)N2C[C@H](Nc3cc(OCC4CNC4)ncn3)[C@@H](c3ccc(F)cc3)C2)c1 [Example 778, 6-(azetidin-3-ylmethoxy)-N-{(3R,4S)-4-(4-fluorophenyl)-1-[(1-methyl-1H-imidazol-4-yl)sulfonyl]pyrrolidin-3-yl}pyrimidin-4-amine] | ≥ 10 µM
10 | Cn1cnc(S(=O)(=O)N2C[C@@H](Nc3cccc(C#N)c3)[C@H](c3ccc(F)cc3)C2)c1 [Example 389, 3-({(3S,4R)-4-(4-fluorophenyl)-1-[(1-methyl-1H-imidazol-4-yl)sulfonyl]pyrrolidin-3-yl}amino)benzonitrile] | ≤ 10 µM
11 | Cn1cnc(S(=O)(=O)N2CC(Nc3nnccc3C(F)(F)F)C(c3ccc(F)cc3)C2)c1 (centres unmarked) [Example 384, N-{4-(4-fluorophenyl)-1-[(1-methyl-1H-imidazol-4-yl)sulfonyl]pyrrolidin-3-yl}-4-(trifluoromethyl)pyridazin-3-amine] | ≤ 10 µM
12 | Cn1cnc(S(=O)(=O)N2CC(NCc3ccc(C(F)(F)F)cc3Cl)C([C@@H]3CCCO3)C2)c1 (stereo partly drawn) [Example 823, N-[2-chloro-4-(trifluoromethyl)benzyl]-1-[(1-methyl-1H-imidazol-4-yl)sulfonyl]-4-[(2S)tetrahydrofuran-2-yl]pyrrolidin-3-amine] | ≤ 1 µM
13 | Cn1cnc(S(=O)(=O)N2C[C@@H](c3ccccc3)[C@](C)(NCc3ccc(C(F)(F)F)cc3)C2)c1 (relative stereo) [Example 355, Trans-3-methyl-1-[(1-methyl-1H-imidazol-4-yl)sulfonyl]-4-phenyl-N-[4-(trifluoromethyl)benzyl]pyrrolidin-3-amine] | ≤ 1 µM
14 | Cn1cnc(S(=O)(=O)N2C[C@H](Nc3cccc(C(F)(F)F)c3)[C@@H](C3CCCO3)C2)c1 (stereo partly drawn) [Example 604, (3R,4S)-1-[(1-methyl-1H-imidazol-4-yl)sulfonyl]-4-(tetrahydrofuran-2-yl)-N-[3-(trifluoromethyl)phenyl]pyrrolidin-3-amine] | ≤ 0.1 µM
15 | Cn1cnc(S(=O)(=O)N2C[C@H](NCc3ccc(C(F)(F)F)cc3)[C@@H](c3ccccc3)C2)c1 [Example 398, (3R,4S)-1-[(1-methyl-1H-imidazol-4-yl)sulfonyl]-4-phenyl-N-[4-(trifluoromethyl)benzyl]pyrrolidin-3-amine] | ≤ 0.01 µM
16 | CC(C)Oc1cc(N[C@H]2CN(S(=O)(=O)c3cn(C)cn3)C[C@@H]2c2ccc(F)cc2)ncn1 [Example 716, N-{(3R,4S)-4-(4-fluorophenyl)-1-[(1-methyl-1H-imidazol-4-yl)sulfonyl]pyrrolidin-3-yl}-6-(propan-2-yloxy)pyrimidin-4-amine] | ≤ 0.1 µM
17 | CCCc1ccc(CN[C@H]2CN(S(=O)(=O)c3cn(C)cn3)C[C@@H]2c2ccccc2)o1 [Example 428, (3R,4S)-1-[(1-methyl-1H-imidazol-4-yl)sulfonyl]-4-phenyl-N-[(5-propylfuran-2-yl)methyl]pyrrolidin-3-amine] | ≤ 0.1 µM
18 | Cn1cnc(S(=O)(=O)N2C[C@H](Nc3ccc(F)c(Cl)c3)[C@@H](c3ccc(F)cc3)C2)c1 [Example 352, (3R,4S)—N-(3-chloro-4-fluorophenyl)-4-(4-fluorophenyl)-1-[(1-methyl-1H-imidazol-4-yl)sulfonyl]pyrrolidin-3-amine] | ≤ 0.01 µM
19 | Cn1cnc(S(=O)(=O)N2C[C@@H](c3ccccc3)[C@](C)(NCc3ccc(Cl)cc3)C2)c1 (relative stereo) [Example 354, Trans-N-(4-chlorobenzyl)-3-methyl-1-[(1-methyl-1H-imidazol-4-yl)sulfonyl]-4-phenylpyrrolidin-3-amine] | ≤ 1 µM
20 | Cc1nn(C2CCCC2)cc1S(=O)(=O)N1CC(Nc2ccc(F)c(F)c2)C(c2ccccc2)C1 (centres unmarked) [Example 479, 1-[(1-cyclopentyl-3-methyl-1H-pyrazol-4-yl)sulfonyl]-N-(3,4-difluorophenyl)-4-phenylpyrrolidin-3-amine] | > 10 µM
21 | CC(C)N1CCC(CN[C@H]2CN(S(=O)(=O)c3cn(C)cn3)C[C@@H]2c2ccccc2)CC1 [Example 459, (3R,4S)-1-[(1-methyl-1H-imidazol-4-yl)sulfonyl]-4-phenyl-N-{[1-(propan-2-yl)piperidin-4-yl]methyl}pyrrolidin-3-amine] | ≤ 10 µM
22 | Cn1cnc(S(=O)(=O)N2C[C@H](Nc3ccc(F)c(-c4cccnc4)c3)[C@@H](c3ccc(F)cc3)C2)c1 [Example 745, (3R,4S)-4-(4-fluorophenyl)-N-[4-fluoro-3-(pyridin-3-yl)phenyl]-1-[(1-methyl-1H-imidazol-4-yl)sulfonyl]pyrrolidin-3-amine] | ≤ 0.01 µM
23 | CCCn1cc(C[C@@H]2CN(S(=O)(=O)c3cn(C)cn3)C[C@H]2c2ccccc2)nn1 [Example 659, 4-({(3S,4R)-1-[(1-methyl-1H-imidazol-4-yl)sulfonyl]-4-phenylpyrrolidin-3-yl}methyl)-1-propyl-1H-1,2,3-triazole] | ≤ 10 µM
